The values that follow come from article PMC6731595, “The anti-parasitic agent suramin and several of its analogues are inhibitors of the DNA binding protein Mcm10” (Open Biology, 2019).

For assay [1], the target named is T1, Xenopus internal domain Mcm10 (xMcm10-ID) (Xenopus laevis, UniProt Q5EAW4).
T1 construct: xMcm10-ID (amino acid residues 229 to 427); 6xHis (HRV 3C site) (N, cleaved yes); made in house; host or cells: E. coli BL21(DE3)
T1 sequence (Q5EAW4 229-427): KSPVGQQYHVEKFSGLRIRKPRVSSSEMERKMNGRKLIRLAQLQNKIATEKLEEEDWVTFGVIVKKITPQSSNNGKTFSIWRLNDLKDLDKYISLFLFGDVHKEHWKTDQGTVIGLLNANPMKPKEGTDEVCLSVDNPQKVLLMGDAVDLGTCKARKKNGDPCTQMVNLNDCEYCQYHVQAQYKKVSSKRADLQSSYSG
The experiment in a line: Fluorescence polarization HTS and dose-response assay, 5′-6FAM probe binding to xMcm10-ID. Conditions: dose-response with repurchased or purchased compound. The method, then: (§1) A fluorescence polarization (FP) HTS assay was established to detect inhibitors of the binding of the 5′-6FAM 10-mer oligo probe to Mcm10. Test compounds dissolved in DMSO were added to 384-well plates (Corning 4514) using an Echo 550 acoustic dispenser (final DMSO 0.1%) to achieve a final single point screening concentration of 10 µM. Then 10 µl of 2× Xenopus internal domain Mcm10 (xMcm10-ID, final concentration 2 µM) in binding buffer (20 mM Tris HCl, 100 mM NaCl, 5% glycerol, and 0.01% triton, pH 7.5) was added using the Combi nL Multidrop dispenser. Finally, 10 µl of 2× 5′-6FAM DNA (final 12.5 nM) in binding buffer was added using the Multidrop. DMSO (0.1%, high signal) and probe only (low signal) controls were included on every plate. Plates were mixed for 2 min, incubated for 60 min at RT in the dark, and read on a CLARIOstar multimode plate reader (excitation: 482-16, emission: 530-40, dichroic filter: LP504).
(§2) The LOPAC pilot screen identified the sulfhydryl reagent 4-chloromercuribenzoic acid as an inhibitor in the fluorescence polarization (FP) assay. As there was no known Mcm10 inhibitor, 4-chloromercuribenzoic acid (30 μM) was used as a positive control on initial screening plates. Following the discovery of suramin as a Mcm10 inhibitor, suramin (7 μM) was used as a positive control on subsequent screening plates. To confirm activity, screening hits were tested in dose response experiments (8 concentrations in duplicate) using xMcm10-ID. Similar dose response experiments were conducted with suramin and its analogs to confirm activity for hMcm10-ID (1 μM) and xMcm10-FL (2 μM) and to determine selectivity relative to RPA70AB (0.4 μM). Saturation experiments for each protein were conducted using increasing concentrations of protein with a fixed probe concentration (12.5 nM). FP was measured in mP units, and ∆mP values for each well were calculated as the difference between the measured mP and the average of the “probe only” controls. […] The parallel and perpendicular mP values were also used to calculate total fluorescence intensity (TFI) determined by the sum of parallel mP + (2 x perpendicular mP). TFI was used to detect fluorescence interference by compounds [1]. […] IC50 values were calculated using the four parameter logistic equation in Prism 6.0 (GraphPad). Ki values were obtained using an online Ki calculator according to the equations of Nikolovska-Coleska (http://sw16.im.med.umich.edu/soft-ware/calc_ki/). KD values were calculated using the one site or two site binding equations in Prism 6.0 (GraphPad).
A general note: In fluorescence polarisation assays a small probe gives low polarisation when free and higher when bound to something large.

Assay [2] has as its target T2, hMcm10-ID (Homo sapiens, UniProt Q7L590).
T2 construct: hMcm10-ID (residues 237 to 436) were expressed in E. coli strain BL21(DE3); 6xHis (HRV 3C site) (N, cleaved yes); made in house; host or cells: E. coli BL21(DE3)
T2 sequence (Q7L590 237-436): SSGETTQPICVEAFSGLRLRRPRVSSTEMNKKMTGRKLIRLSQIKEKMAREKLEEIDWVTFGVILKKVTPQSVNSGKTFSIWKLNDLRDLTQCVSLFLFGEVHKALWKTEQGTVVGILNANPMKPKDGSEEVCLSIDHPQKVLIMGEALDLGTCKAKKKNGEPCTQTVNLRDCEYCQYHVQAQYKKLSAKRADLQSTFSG
Kind of assay: Surface plasmon resonance binding kinetics on immobilized hMcm10-ID (Biacore S200). Conditions: for surface plasmon resonance hMcm10-ID kd / kon / Kd: 1:1 model, 6000–8000 RU; for surface plasmon resonance hMcm10-ID kd / kon: 25°C; for kon: read-out: surface plasmon resonance hMcm10-ID ka; for Kd: calculated from association and dissociation rate constants, read-out: surface plasmon resonance hMcm10-ID kinetic KD; for SPR binding kinetics (description of sensorgrams): immobilized hMcm10-ID. The protocol:
SPR experiments were performed using a Biacore S200 (GE Healthcare) equipped with a research-grade CM5 sensor chip. hMcm10-ID, at a concentration of 15 µg ml^−1 in 10 mM sodium acetate, pH 4.5, […], using an amine coupling kit (GE Healthcare) to either flow cell 2 or 4 following manufacturer directions. The reference flow cell (either flow cell 1 or 3) was left untreated. All compounds were dissolved in running buffer (10 mM PBS, 150 mM NaCl, 0.005% P20, pH 7.4) prior to injection over the chip surface at a flow rate of 30 µl min^−1 and at a temperature of 25°C. Zero concentration samples were injected for double referencing. Data were collected at a rate of 40 Hz and were fitted to a simple 1 : 1 interaction model (unless otherwise noted) using the global data analysis within the Biacore S200 evaluation software.

The target in assay [3] is T3, full-length Xenopus Mcm10 (xMcm10-FL) (Xenopus laevis, UniProt Q5EAW4).
T3 construct: The full-length xMcm10 was expressed with MBP fused onto the N-terminus and 6x-His tag attached to the C-terminus; 6xHis (C); made in house; host or cells: E. coli BL21(DE3), as for the ID constructs ('as described above')
T3 sequence (Q5EAW4 1-860): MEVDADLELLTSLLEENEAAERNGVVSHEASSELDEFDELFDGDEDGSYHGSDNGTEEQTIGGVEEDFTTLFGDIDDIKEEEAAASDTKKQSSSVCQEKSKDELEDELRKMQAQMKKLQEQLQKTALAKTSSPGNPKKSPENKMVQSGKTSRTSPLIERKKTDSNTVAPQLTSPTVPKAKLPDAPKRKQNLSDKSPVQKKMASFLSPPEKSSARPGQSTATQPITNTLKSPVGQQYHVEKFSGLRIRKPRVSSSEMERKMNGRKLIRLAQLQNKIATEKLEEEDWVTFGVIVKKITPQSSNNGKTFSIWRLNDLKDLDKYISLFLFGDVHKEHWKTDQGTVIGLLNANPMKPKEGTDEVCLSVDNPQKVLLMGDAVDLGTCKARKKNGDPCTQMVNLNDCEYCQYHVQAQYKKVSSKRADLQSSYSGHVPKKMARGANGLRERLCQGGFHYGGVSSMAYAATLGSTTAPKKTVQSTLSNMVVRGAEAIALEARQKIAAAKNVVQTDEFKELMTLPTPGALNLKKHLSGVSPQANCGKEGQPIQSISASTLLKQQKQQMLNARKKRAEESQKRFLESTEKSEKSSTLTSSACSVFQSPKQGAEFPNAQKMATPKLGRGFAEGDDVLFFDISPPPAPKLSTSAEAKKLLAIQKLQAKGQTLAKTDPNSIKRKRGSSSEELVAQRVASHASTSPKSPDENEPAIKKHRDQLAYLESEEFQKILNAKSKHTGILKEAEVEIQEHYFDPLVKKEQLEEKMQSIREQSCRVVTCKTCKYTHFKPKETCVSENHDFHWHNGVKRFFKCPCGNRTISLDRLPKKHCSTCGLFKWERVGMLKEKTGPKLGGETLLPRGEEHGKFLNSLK
The experiment in a line: Fluorescence polarization competition assay, displacement of 5′-6FAM ssDNA probe from xMcm10-FL. The format is binding. The note with it: averages of n = 2; xMcm10-FL 2 μM. The method, then: as §1, §2

Assay [4] has as its target T4, human Mcm10 internal domain (hMcm10-ID) (Homo sapiens, UniProt Q7L590).
T4 construct: hMcm10-ID (residues 237 to 436) were expressed in E. coli strain BL21(DE3); 6xHis (HRV 3C site) (N, cleaved yes); made in house; host or cells: E. coli BL21(DE3)
T4 sequence (Q7L590 237-436): T2 sequence (Q7L590 237-436)
The experiment in a line: Fluorescence polarization competition assay, displacement of 5′-6FAM 10-mer ssDNA probe from hMcm10-ID. Conditions: mean ± s.e.m., n ≥ 3; hMcm10-ID 1 μM, probe 12.5 nM. The format is binding. The method, then:
as §1, §2

The target in assay [5] is T5, human RPA70AB (A and B DNA binding domains of RPA70) (Homo sapiens, UniProt P27694).
T5 construct: recombinant human RPA70AB (181-422) in a pSV281 vector; 6xHis (TEV site) (N, cleaved yes); made in house; host or cells: Escherichia coli BL21(DE3)
The experiment in a line: Fluorescence polarization competition assay, displacement of 5′-6FAM ssDNA probe from RPA70AB. The note with it: for Ki: mean ± s.e.m., n ≥ 3; for selectivity RPA/ hMcm10: ratio of hRPA70AB Ki2 to hMcm10-ID Ki (FP). The protocol:
as §1, §2

Assay [6] concerns DNA replication of sperm chromatin in Xenopus egg extracts. Kind of assay: In vitro DNA replication assay in Xenopus S-phase egg extracts ([α-32P]dGTP incorporation). The format is biochemical. Conditions: 10, 50, 150 and 300 µM. The protocol: Xenopus egg extracts were prepared according to the method of Murray. Replication of sperm chromatin in S-phase egg extracts was monitored as previously described. Compounds identified by HTS were added to replication reactions immediately prior to addition of [α-^32P]dGTP (Perkin Elmer BLU514H250UC).
To determine whether the four remaining confirmed HTS hits affected DNA replication, in vitro replication assays were performed using Xenopus S-phase egg extracts incubated with sperm chromatin [25, 34]. DNA replication was measured in the presence of bronopol, fumarprotocetraric acid, iriginol and suramin or DMSO by the incorporation of [α-^32P]dGTP. […] For this reason, further studies focused on suramin alone.
Figure 1. Suramin inhibits DNA replication in an in vitro Xenopus replication assay. HTS hits were evaluated for inhibition of [α-^32P]dGTP incorporation into DNA using a cell-free extract prepared from Xenopus eggs at increasing concentrations (10, 50, 150 and 300 µM indicated by black triangle from right to left). No chemical (–) and DMSO were used as negative controls for replication inhibition (far left and far right lanes).

[7] abbreviates: predominant low-affinity (or only) component, read-out: fluorescence polarization hRPA70AB Ki2.

Broadly, the Kd is a measure of binding affinity in units of concentration. The term IC50 denotes the point on the concentration scale where inhibition reaches its midpoint.

Like-named read-outs stand apart in the source and are kept apart here.

T5 sequence (P27694 181-422): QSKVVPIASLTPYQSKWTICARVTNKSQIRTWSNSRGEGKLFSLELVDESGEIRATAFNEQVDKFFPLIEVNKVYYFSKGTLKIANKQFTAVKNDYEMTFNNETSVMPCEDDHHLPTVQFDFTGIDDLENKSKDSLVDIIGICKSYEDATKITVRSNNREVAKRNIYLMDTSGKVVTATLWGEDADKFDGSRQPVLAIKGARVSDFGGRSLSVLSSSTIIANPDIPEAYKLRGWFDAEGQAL

As to `O=C(O)c1cc[c]([Hg][Cl])cc1` [4-chloromercuribenzoic acid], the “inhibition of 5′-6FAM probe binding to xMcm10-ID (result in words)” value in assay [1] is “active”.
For `O=C(Nc1cc(C(=O)Nc2ccc(S(=O)(=O)O)cc2)cc(C(=O)Nc2ccc(S(=O)(=O)O)cc2)c1)Nc1cc(C(=O)Nc2ccc(S(=O)(=O)O)cc2)cc(C(=O)Nc2ccc(S(=O)(=O)O)cc2)c1` [NF110], in assay [2], the “surface plasmon resonance hMcm10-ID kd” value is on record as 0.35 ± 0.19 s^−1, the kon turned out to be 290000 ± 1.6e+10 M⁻¹ s⁻¹, the Kd was 1500 ± 200 nM and the “SPR binding kinetics (description of sensorgrams)” value is on record as “predominantly rapid kinetics”. In addition, in assay [3], the Ki was determined as 2900 nM. Also, the Ki in assay [4] was 2300 ± 100 nM. Besides, in assay [5] (high-affinity component of biphasic displacement curve, read-out: fluorescence polarization hRPA70AB Ki1), the Ki amounted to 210 ± 40 nM. In addition, the Ki in assay [5] (setting [7]) worked out at 23000 ± 1000 nM. Also, the “selectivity RPA/ hMcm10” value in assay [5] is given as 10.
For `O=C(Nc1cc(C(=O)Nc2ccc(S(=O)(=O)O)cc2S(=O)(=O)O)cc(C(=O)Nc2ccc(S(=O)(=O)O)cc2S(=O)(=O)O)c1)Nc1cc(C(=O)Nc2ccc(S(=O)(=O)O)cc2S(=O)(=O)O)cc(C(=O)Nc2ccc(S(=O)(=O)O)cc2S(=O)(=O)O)c1` [NF449], in assay [2], the “surface plasmon resonance hMcm10-ID kd” value amounted to 0.59 ± 0.10 s^−1, the kon stood at 780000 ± 1e+09 M⁻¹ s⁻¹, the Kd was 740 ± 130 nM and the “SPR binding kinetics (description of sensorgrams)” value was “predominantly rapid kinetics”. Further, in assay [3], the Ki turned out to be 1900 nM. In addition, the Ki in assay [4] is 440 ± 40 nM. Besides, the “selectivity for hMcm10 over RPA70AB” value in assay [5] (FP) was “more than 10 fold”. In addition, the IC50 in assay [5] (below lower limit of the sensitivity of the assay, read-out: IC50 value for the high affinity component, hRPA70AB) was determined as 93 nM. In addition, the Ki in assay [5] (setting [7]) was determined as 14000 ± 400 nM. In assay [5], the “selectivity RPA/ hMcm10” value worked out at 32.
For `O=[N+]([O-])C(Br)(CO)CO` [bronopol], the “inhibition of 5′-6FAM probe binding to xMcm10-ID (result in words)” value in assay [1] was “active”. Also, in assay [6], the “DNA replication, [α-32P]dGTP incorporation (result in words)” value is given as “only suramin exhibited a dose-dependent decrease in DNA replication”.
In the same order, the values of `Cc1cc(O)c(C=O)c2c1C(=O)Oc1c(COC(=O)/C=C/C(=O)O)c(O)c(C(=O)O)c(C)c1O2` [fumarprotocetraric acid] are “active” and “only suramin exhibited a dose-dependent decrease in DNA replication”.
The matching figures for `CC(=O)Oc1cc(-c2coc3cc(OC(C)=O)c(OC(C)=O)c(OC(C)=O)c3c2=O)cc(OC(C)=O)c1OC(C)=O` [iriginol hexaacetate]: “active” and “only suramin exhibited a dose-dependent decrease in DNA replication”.
